For test [1], the target named is P. aeruginosa RNR active holoenzyme (NrdA/B complex) (Pseudomonas aeruginosa, UniProt Q9I4I1+Q9I4I2). Kind of test: EPR, tyrosyl radical quenching in holoenzyme. The format is biochemical. Conditions: 133 µM compound, 12 µM each NrdA and NrdB, 5 mM ATP, 10 mM magnesium acetate, 30 mM DTT, 50 mM Tris pH 7.5; corrected for control decay. From the text:
EPR, tyrosyl radical quenching in holoenzyme on P. aeruginosa RNR active holoenzyme (NrdA/B complex)

The target of test [2] is T1, NrdB (Pseudomonas aeruginosa, UniProt Q9I4I2).
T1 construct: homodimer concentrations; apoNrdB reconstituted with Fe2+ for EPR
T1 sequence (Q9I4I2 1-415): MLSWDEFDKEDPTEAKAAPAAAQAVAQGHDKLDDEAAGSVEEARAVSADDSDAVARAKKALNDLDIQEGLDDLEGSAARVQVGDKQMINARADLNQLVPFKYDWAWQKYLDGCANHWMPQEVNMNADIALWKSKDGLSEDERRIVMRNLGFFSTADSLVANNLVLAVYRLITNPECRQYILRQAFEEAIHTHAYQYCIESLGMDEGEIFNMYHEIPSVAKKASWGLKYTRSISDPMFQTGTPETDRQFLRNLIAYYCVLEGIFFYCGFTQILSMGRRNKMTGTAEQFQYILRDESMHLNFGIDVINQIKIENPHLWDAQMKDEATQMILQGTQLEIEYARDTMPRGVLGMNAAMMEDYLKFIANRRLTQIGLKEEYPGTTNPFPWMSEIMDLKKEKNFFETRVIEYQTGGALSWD
The test can be described thus: EPR, tyrosyl radical quenching. The format is biochemical. As to conditions: 133 µM compound, 15 µM Fe-reconstituted NrdB, 50 mM Tris pH 7.5, 1% DMSO, no DTT; corrected for control decay. The text has this:
EPR, tyrosyl radical quenching on NrdB

The structures appear in SMILES notation.

Sequence of P. aeruginosa RNR active holoenzyme (NrdA/B complex) (Q9I4I1 1-963): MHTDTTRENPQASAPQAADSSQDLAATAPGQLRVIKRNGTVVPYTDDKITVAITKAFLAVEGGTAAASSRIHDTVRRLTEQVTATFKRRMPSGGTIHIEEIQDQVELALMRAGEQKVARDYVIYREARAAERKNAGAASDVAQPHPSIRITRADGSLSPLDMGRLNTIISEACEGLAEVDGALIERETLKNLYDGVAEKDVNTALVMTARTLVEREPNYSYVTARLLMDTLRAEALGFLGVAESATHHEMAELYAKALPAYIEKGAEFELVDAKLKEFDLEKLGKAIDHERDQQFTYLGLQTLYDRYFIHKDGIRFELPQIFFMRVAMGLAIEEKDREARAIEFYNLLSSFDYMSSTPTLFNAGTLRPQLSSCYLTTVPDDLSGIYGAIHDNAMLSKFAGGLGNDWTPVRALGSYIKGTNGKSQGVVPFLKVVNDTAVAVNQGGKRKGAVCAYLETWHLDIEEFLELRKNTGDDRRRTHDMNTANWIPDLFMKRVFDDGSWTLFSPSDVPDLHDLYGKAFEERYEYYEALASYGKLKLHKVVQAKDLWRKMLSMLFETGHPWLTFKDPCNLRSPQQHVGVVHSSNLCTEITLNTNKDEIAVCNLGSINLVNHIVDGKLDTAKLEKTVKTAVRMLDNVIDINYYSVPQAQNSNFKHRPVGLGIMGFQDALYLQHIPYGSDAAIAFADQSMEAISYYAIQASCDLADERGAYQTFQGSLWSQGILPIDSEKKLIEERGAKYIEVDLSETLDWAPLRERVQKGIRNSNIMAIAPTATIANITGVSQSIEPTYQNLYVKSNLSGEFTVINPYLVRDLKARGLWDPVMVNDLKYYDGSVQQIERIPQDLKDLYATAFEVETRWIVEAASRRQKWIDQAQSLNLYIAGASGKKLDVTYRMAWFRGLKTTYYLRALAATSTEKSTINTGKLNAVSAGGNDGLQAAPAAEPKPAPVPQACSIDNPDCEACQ
Sequence of P. aeruginosa RNR active holoenzyme (NrdA/B complex) (Q9I4I2 1-415): as the sequence (Q9I4I2 1-415) above

On to `COc1ccc(C2=NC(=O)NC2c2ccc(OC)cc2)cc1` (stereo not drawn) [compound 26692, NSC26692], for which, in test [1], the “Tyrosyl radical decay rate” value amounted to 0.18 ± 0.19 min⁻¹.

In the case of `COc1cc(-c2ccc(Nc3ccccc3C(=O)O)c(OC)c2)ccc1Nc1ccccc1C(=O)O` [compound 73735, NSC73735], the “Tyrosyl radical decay rate” value in test [1] was determined as 0.67 ± 0.01 min⁻¹.

For the compound `CCc1oc2ccccc2c1C(=O)c1cc(Br)c(O)c(Br)c1` [compound 85433, NSC85433], the “Tyrosyl radical decay rate” value in test [1] came out at 0.33 ± 0.03 min⁻¹.

In the case of `CC(=O)c1cc(O)c2ccccc2c1O` [compound 111552, NSC111552], the “Tyrosyl radical decay rate” value in test [1] came to 0.43 ± 0.32 min⁻¹. For the same compound, the “Tyrosyl radical decay rate and radical left after 10 min / NrdB only^a” value in test [2] stood at 0.19 ± 0.03 min⁻¹.

Turning to `N#Cc1c(C#N)c(O)c2ccccc2c1O` [compound 128281, NSC128281], the “Tyrosyl radical decay rate” value in test [1] came to 0.43 ± 0.03 min⁻¹. For the same compound, in test [2], the “Tyrosyl radical decay rate and radical left after 10 min / NrdB only^a” value came out at 0.30 ± 0.07 min⁻¹.

Consider `CCOC(=O)/C=C(/C)Sc1cc(O)c2ccccc2c1O` [compound 278631, NSC278631], for which the “Tyrosyl radical decay rate and radical left after 10 min / NrdB only^a” value in test [2] came out at 0.40 ± 0.06 min⁻¹.

As to `O=C(Nc1ccc(Cl)c(Cl)c1)Nc1ccccc1O` [compound 522131, NSC522131], the “Tyrosyl radical decay rate and radical left after 10 min / NrdB only^a” value in test [2] was 0.35 ± 0.04 min⁻¹.
